Values joined by “and” are separate entries in the source; they are usually repeats but may differ in a detail not shown here. Equal values may be shown once. Toxic doses and inconclusive results are not listed.

For this experiment, the system named is CD2F1 mice, L1210 leukemia sc, survival T/C. Put plainly: NCI In Vivo Anticancer Drug Screen. Data for tumor model L1210 Leukemia (subcutaneous) in CD2F1 (CDF1) mice. The conditions noted are these: endpoint: median survival time, higher = longer survival. The method, boiled down: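 T/C ratio: treated-group survival or tumor size over vehicle-control group measurement, in mice carrying transplanted tumors.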

Regarding `O=C(O)CCCc1ccc(N(CCCl)CCCl)cc1`, the T/C is 98 % of control (dose: 1.5 mg/kg/injection, schedule: Q01DX009 (ip), vehicle: saline with Tween-80); 107 % of control (dose: 3.0 mg/kg/injection, schedule: Q01DX009 (ip), vehicle: saline with Tween-80); 107 % of control (dose: 6.0 mg/kg/injection, schedule: Q01DX009 (ip), vehicle: saline with Tween-80); 123 % of control (dose: 12.0 mg/kg/injection, schedule: Q01DX009 (ip), vehicle: saline with Tween-80).

As for `CC(=O)[C@H]1CC[C@H]2[C@@H]3C[C@H](C)C4=CC(=O)CC[C@]4(C)[C@H]3C(=O)C[C@]12C`, the T/C (dose: 20.0 mg/kg/injection, schedule: Q01DX009 (ip), vehicle: saline with Tween-80) was 94 % of control; the T/C (dose: 20.0 mg/kg/injection, schedule: Q01DX009 (sc), vehicle: saline with Tween-80) was 97 % of control; the T/C (dose: 40.0 mg/kg/injection, schedule: Q01DX009 (ip), vehicle: saline with Tween-80) is 93 % of control; the T/C (dose: 40.0 mg/kg/injection, schedule: Q01DX009 (sc), vehicle: saline with Tween-80) is 98 % of control; the T/C (dose: 80.0 mg/kg/injection, schedule: Q01DX009 (ip), vehicle: saline with Tween-80) is 93 % of control; the T/C (dose: 80.0 mg/kg/injection, schedule: Q01DX009 (sc), vehicle: saline with Tween-80) is 101 % of control. For the same compound, the T/C was 93 % of control (dose: 160.0 mg/kg/injection, schedule: Q01DX009 (ip), vehicle: saline with Tween-80); 98 % of control (dose: 160.0 mg/kg/injection, schedule: Q01DX009 (sc), vehicle: saline with Tween-80); 96 % of control (dose: 320.0 mg/kg/injection, schedule: Q01DX009 (ip), vehicle: saline with Tween-80); 105 % of control (dose: 320.0 mg/kg/injection, schedule: Q01DX009 (sc), vehicle: saline with Tween-80); 109 % of control (dose: 640.0 mg/kg/injection, schedule: Q01DX009 (sc), vehicle: saline with Tween-80).

For `O=P1(N(CCCl)CCCl)NCCCO1` (centres undefined), the T/C is, setting by setting: (dose: 6.25 mg/kg/injection, schedule: Q01DX009 (ip), vehicle: saline) 103 % of control; (dose: 6.25 mg/kg/injection, schedule: Q01DX009 (sc), vehicle: saline) 107 % of control; (dose: 12.5 mg/kg/injection, schedule: Q01DX009 (ip), vehicle: saline) 106 % of control and 107 % of control; (dose: 12.5 mg/kg/injection, schedule: Q01DX009 (sc), vehicle: saline) 110 % of control; (dose: 23.0 mg/kg/injection, schedule: Q01DX Z (sc), vehicle: saline) 210 % of control; (dose: 25.0 mg/kg/injection, schedule: Q01DX009 (ip), vehicle: saline) 151 % of control. Also, the T/C by setting is: (dose: 39.0 mg/kg/injection, schedule: Q01DX Z (sc), vehicle: saline) 221 % of control; (dose: 39.0 mg/kg/injection, schedule: Q08DX003 (ip), vehicle: none) 118 % of control; (dose: 39.0 mg/kg/injection, schedule: Q08DX003 (sc), vehicle: saline) 116 % of control; (dose: 50.0 mg/kg/injection, schedule: Q01DX009 (ip), vehicle: saline) 165 % of control and 173 % of control and 177 % of control; (dose: 50.0 mg/kg/injection, schedule: Q01DX009 (sc), vehicle: saline) 191 % of control; (dose: 65.0 mg/kg/injection, schedule: Q01DX Z (sc), vehicle: saline) 236 % of control. In addition, the T/C reads like this: (dose: 65.0 mg/kg/injection, schedule: Q07DX003 (ip), vehicle: saline) 123 % of control; (dose: 65.0 mg/kg/injection, schedule: Q08DX003 (ip), vehicle: none) 188 % of control; (dose: 65.0 mg/kg/injection, schedule: Q08DX003 (sc), vehicle: saline) 172 % of control; (dose: 65.0 mg/kg/injection, schedule: Q## X Z (sc), vehicle: saline) 215 % of control; (dose: 100.0 mg/kg/injection, schedule: Q01DX009 (ip), vehicle: saline) 222 % of control and 247 % of control and 89 % of control; (dose: 100.0 mg/kg/injection, schedule: Q01DX009 (sc), vehicle: saline) 259 % of control. For the same compound, the T/C (dose: 108.0 mg/kg/injection, schedule: Q01DX001 (sc), vehicle: saline) was 164 % of control and 166 % of control and 168 % of control; the T/C (dose: 108.0 mg/kg/injection, schedule: Q01DX Z (sc), vehicle: saline) is 189 % of control; the T/C (dose: 108.0 mg/kg/injection, schedule: Q07DX003 (ip), vehicle: saline) was 183 % of control; the T/C (dose: 108.0 mg/kg/injection, schedule: Q07DX003 (sc), vehicle: saline) is 211 % of control and 217 % of control; the T/C (dose: 108.0 mg/kg/injection, schedule: Q07DX Z (sc), vehicle: saline) was 226 % of control; the T/C (dose: 108.0 mg/kg/injection, schedule: Q08DX003 (ip), vehicle: none) is 241 % of control. In addition, the T/C runs as follows: (dose: 108.0 mg/kg/injection, schedule: Q08DX003 (sc), vehicle: saline) 227 % of control; (dose: 108.0 mg/kg/injection, schedule: Q## X Z (sc), vehicle: saline) 231 % of control; (dose: 180.0 mg/kg/injection, schedule: Q01DX001 (sc), vehicle: saline) 197 % of control and 200 % of control (2×); (dose: 180.0 mg/kg/injection, schedule: Q01DX Z (sc), vehicle: saline) 152 % of control; (dose: 180.0 mg/kg/injection, schedule: Q07DX003 (ip), vehicle: saline) 274 % of control; (dose: 180.0 mg/kg/injection, schedule: Q07DX003 (sc), vehicle: saline) 355 % of control and 373 % of control. Besides, the T/C reads like this: (dose: 180.0 mg/kg/injection, schedule: Q07DX Z (sc), vehicle: saline) 284 % of control; (dose: 180.0 mg/kg/injection, schedule: Q08DX003 (ip), vehicle: none) 288 % of control; (dose: 180.0 mg/kg/injection, schedule: Q08DX003 (sc), vehicle: saline) 283 % of control; (dose: 180.0 mg/kg/injection, schedule: Q## X Z (sc), vehicle: saline) 263 % of control; (dose: 300.0 mg/kg/injection, schedule: Q01DX001 (sc), vehicle: saline) 242 % of control and 244 % of control and 252 % of control; (dose: 300.0 mg/kg/injection, schedule: Q07DX003 (ip), vehicle: saline) 274 % of control. Also, the T/C (dose: 300.0 mg/kg/injection, schedule: Q07DX003 (sc), vehicle: saline) is 283 % of control and 296 % of control; the T/C (dose: 300.0 mg/kg/injection, schedule: Q07DX Z (sc), vehicle: saline) is 231 % of control; the T/C (dose: 300.0 mg/kg/injection, schedule: Q08DX003 (ip), vehicle: none) is 222 % of control; the T/C (dose: 300.0 mg/kg/injection, schedule: Q08DX003 (sc), vehicle: saline) is 205 % of control; the T/C (dose: 500.0 mg/kg/injection, schedule: Q01DX001 (sc), vehicle: saline) was 120 % of control and 221 % of control; the T/C (dose: 500.0 mg/kg/injection, schedule: Q## X Z (sc), vehicle: saline) is 152 % of control. Besides, the T/C runs as follows: (dose: 833.0 mg/kg/injection, schedule: Q01DX001 (sc), vehicle: saline) 210 % of control; (dose: 833.0 mg/kg/injection, schedule: Q07DX Z (sc), vehicle: saline) 157 % of control.

The values above are taken from PubChem BioAssay AID258 (DTP/NCI, 2004).
